The text below walks through data of ChEMBL document CHEMBL4765476, “MCC950, a NLRP3 inhibitor, ameliorates lipopolysaccharide-induced lung inflammation in mice” (Bioorg Med Chem, 2021).

Active and inactive are the calls of the source. The calls are words filed in the database; no cut-off is given here.

Broadly, the inhibition in vivo is how much of the control response was suppressed.

In assay [1] the test system is Mus musculus. Kind of assay: Antiinflammatory activity in ICR mouse assessed as reduction in LPS-induced TGF-beta1 mRNA expression in lungs at 0.5 mg/kg, ip administered 18 hrs before LPS-stimulation and measured after 24 hrs by qRT-PCR analysis. The format is functional, organism-based. The settings on record: time 42.0 hrs. For orientation: Real-time PCR tracks product formation cycle by cycle.

Assay [2] deals with Mus musculus. As to the kind of experiment: Antiinflammatory activity in ICR mouse assessed as reduction in LPS-induced IL-1beta expression in serum at 0.5 mg/kg, INH administered 18 hrs before LPS-stimulation and measured after 24 hrs by ELISA. Format: functional, organism-based. The following applies: time 42.0 hrs. On the technique in general: In an ELISA, binding on a coated surface is turned into a signal by an enzyme label.

Assay [3] relates to Mus musculus. As to the kind of experiment: Antiinflammatory activity in ICR mouse assessed as reduction in LPS-induced MMP-9 mRNA expression in lungs at 0.5 mg/kg, ip administered 18 hrs before LPS-stimulation and measured after 24 hrs by qRT-PCR analysis. The format is functional, organism-based. The settings on record: time 42.0 hrs.
The subject of assay [4] is Mus musculus. Kind of assay: Antiinflammatory activity in ICR mouse assessed as reduction in LPS-induced neutrophil infiltration in lungs at 0.5 mg/kg, ip administered 18 hrs before LPS-stimulation and measured after 24 hrs by H and E staining based imaging analysis relative to control. The format is functional. The settings on record: time 42 hrs.
Assay [5] deals with Mus musculus. As to the kind of experiment: Antiinflammatory activity in ICR mouse assessed as reduction in LPS-induced IL-1beta expression in lungs at 0.5 mg/kg, INH administered 18 hrs before LPS-stimulation and measured after 24 hrs by Western blot analysis. The format is functional, organism-based. The following applies: time 42.0 hrs. Background: A western blot detects proteins with antibodies after separation by electrophoresis.

The subject of assay [6] is Mus musculus. Kind of assay: Antiinflammatory activity in ICR mouse assessed as reduction in LPS-induced IL-1beta mRNA expression in lungs at 0.5 mg/kg, INH administered 18 hrs before LPS-stimulation and measured after 24 hrs by qRT-PCR analysis. The settings on record: time 42.0 hrs. Format: functional, organism-based.
Assay [7] relates to Mus musculus. Kind of assay: Antiinflammatory activity in ICR mouse assessed as reduction in LPS-induced caspase-1 expression in lungs at 0.5 mg/kg, ip administered 18 hrs before LPS-stimulation and measured after 24 hrs by Western blot analysis. The following applies: time 42.0 hrs. Format: functional, organism-based.
The subject of assay [8] is Mus musculus. Kind of assay: Antiinflammatory activity in ICR mouse assessed as reduction in LPS-induced lymphocyte level in BALF at 0.5 mg/kg, INH administered 18 hrs before LPS-stimulation and measured after 24 hrs by FACS analysis relative to control. The format is functional. The settings on record: time 42 hrs.
Assay [9] concerns Mus musculus. Kind of assay: Antiinflammatory activity in ICR mouse assessed as reduction in LPS-induced IL-8 mRNA expression in lungs at 0.5 mg/kg, INH administered 18 hrs before LPS-stimulation and measured after 24 hrs by qRT-PCR analysis. The following applies: time 42.0 hrs. Format: functional, organism-based.
For assay [10], the system named is Mus musculus. As to the kind of experiment: Antiinflammatory activity in ICR mouse assessed as reduction in LPS-induced IL-18 expression in serum at 0.5 mg/kg, ip administered 18 hrs before LPS-stimulation and measured after 24 hrs by ELISA. Format: functional, organism-based.
The subject of assay [11] is Mus musculus. Kind of assay: Antiinflammatory activity in ICR mouse assessed as reduction in LPS-induced neutrophil level in BALF at 0.5 mg/kg, ip administered 18 hrs before LPS-stimulation and measured after 24 hrs by FACS analysis relative to control. The format is functional. The settings on record: time 42 hrs.
In assay [12] the test system is Mus musculus. As to the kind of experiment: Antiinflammatory activity in ICR mouse assessed as reduction in LPS-induced IL-1beta expression in lungs at 0.5 mg/kg, ip administered 18 hrs before LPS-stimulation and measured after 24 hrs by Western blot analysis. Format: functional, organism-based. The following applies: time 42.0 hrs.
Assay [13] deals with Mus musculus. Kind of assay: Antiinflammatory activity in ICR mouse assessed as reduction in LPS-induced macrophage level in BALF at 0.5 mg/kg, INH administered 18 hrs before LPS-stimulation and measured after 24 hrs by FACS analysis relative to control. The format is functional. The following applies: time 42 hrs.
Assay [14] deals with Mus musculus. As to the kind of experiment: Antiinflammatory activity in ICR mouse assessed as reduction in LPS-induced MMP-9 mRNA expression in lungs at 0.5 mg/kg, INH administered 18 hrs before LPS-stimulation and measured after 24 hrs by qRT-PCR analysis. Format: functional, organism-based. The settings on record: time 42.0 hrs.
The subject of assay [15] is Mus musculus. As to the kind of experiment: Antiinflammatory activity in ICR mouse assessed as reduction in LPS-induced caspase-1 expression in lungs at 0.5 mg/kg, INH administered 18 hrs before LPS-stimulation and measured after 24 hrs by Western blot analysis. Format: functional, organism-based. The following applies: time 42.0 hrs.
Assay [16] relates to Mus musculus. As to the kind of experiment: Antiinflammatory activity in ICR mouse assessed as reduction in LPS-induced lymphocyte level in BALF at 0.5 mg/kg, ip administered 18 hrs before LPS-stimulation and measured after 24 hrs by FACS analysis relative to control. Format: functional. The settings on record: time 42 hrs.
The test system of assay [17] is Mus musculus. Kind of assay: Antiinflammatory activity in ICR mouse assessed as reduction in LPS-induced IL-18 expression in serum at 0.5 mg/kg, INH administered 18 hrs before LPS-stimulation and measured after 24 hrs by ELISA. The format is functional, organism-based. The following applies: time 42.0 hrs.
Assay [18] deals with Mus musculus. Kind of assay: Antiinflammatory activity in ICR mouse assessed as reduction in LPS-induced neutrophil infiltration in lungs at 0.5 mg/kg, INH administered 18 hrs before LPS-stimulation and measured after 24 hrs by H and E staining based imaging analysis relative to control. The settings on record: time 42 hrs. The format is functional.
The test system of assay [19] is Mus musculus. Kind of assay: Antiinflammatory activity in ICR mouse assessed as reduction in LPS-induced TGF-beta1 mRNA expression in lungs at 0.5 mg/kg, INH administered 18 hrs before LPS-stimulation and measured after 24 hrs by qRT-PCR analysis. Format: functional, organism-based. The settings on record: time 42.0 hrs.
In assay [20] the test system is Mus musculus. As to the kind of experiment: Antiinflammatory activity in ICR mouse assessed as reduction in LPS-induced IL-1beta mRNA expression in lungs at 0.5 mg/kg, ip administered 18 hrs before LPS-stimulation and measured after 24 hrs by qRT-PCR analysis. The settings on record: time 42.0 hrs. The format is functional, organism-based.
Assay [21] relates to Mus musculus. Kind of assay: Antiinflammatory activity in ICR mouse assessed as reduction in LPS-induced neutrophil level in BALF at 0.5 mg/kg, INH administered 18 hrs before LPS-stimulation and measured after 24 hrs by FACS analysis relative to control. The following applies: time 42 hrs. The format is functional.
For assay [22], the system named is Mus musculus. Kind of assay: Antiinflammatory activity in ICR mouse assessed as reduction in LPS-induced IL-1beta expression in serum at 0.5 mg/kg, ip administered 18 hrs before LPS-stimulation and measured after 24 hrs by ELISA. The format is functional, organism-based. The following applies: time 42.0 hrs.
Assay [23] has as its system Mus musculus. As to the kind of experiment: Antiinflammatory activity in ICR mouse assessed as reduction in LPS-induced macrophage level in BALF at 0.5 mg/kg, ip administered 18 hrs before LPS-stimulation and measured after 24 hrs by FACS analysis relative to control. Format: functional. The following applies: time 42 hrs.
Assay [24] has as its system Mus musculus. Kind of assay: Antiinflammatory activity in ICR mouse assessed as reduction in LPS-induced IL-8 mRNA expression in lungs at 0.5 mg/kg, ip administered 18 hrs before LPS-stimulation and measured after 24 hrs by qRT-PCR analysis. Format: functional, organism-based. The settings on record: time 42.0 hrs.

Turning to `C[C@@H]1C[C@H]2[C@@H]3CCC4=CC(=O)C=C[C@]4(C)[C@@]3(F)[C@@H](O)C[C@]2(C)[C@@]1(O)C(=O)CO` [DEXAMETHASONE], the inhibition entry with Mus musculus [1], in the assay with Mus musculus [2], with Mus musculus [3], in the assay with Mus musculus [5], in the assay with Mus musculus [6] and with Mus musculus [7] was “Active” throughout. The inhibition entry with Mus musculus [9], in the assay with Mus musculus [10], in the assay with Mus musculus [12], with Mus musculus [14], in the assay on Mus musculus [15] and in the assay on Mus musculus [17] was “Active” each time. Besides, the inhibition entry in the assay with Mus musculus [19], in the assay with Mus musculus [20], in the assay with Mus musculus [22] and in the assay with Mus musculus [24] was “Active” throughout. Also, the inhibition in vivo at 0.5 mg/kg with Mus musculus [4] amounted to 58.7%; in the assay on Mus musculus [8], 30.6%; in the assay with Mus musculus [11] it was 66.9%; with Mus musculus [13], 40.9%; in the assay with Mus musculus [16] it was 46.1%; in the assay on Mus musculus [18] it was 55.9%. Moreover, the inhibition in vivo at 0.5 mg/kg in the assay on Mus musculus [21] came to 72.9%; in the assay on Mus musculus [23] it was 75.1%.
